Common to all, as to type: functional
The test system of assay [1] is Acinetobacter baumannii. As to the kind of experiment: Potentiation of clarithromycin-induced antibacterial activity against Acinetobacter baumannii AB5075 assessed as clarithromycin MIC at 7.5 uM incubated for 16 hrs by broth microdilution method (reference value: […] ug/ml).
Assay [2] deals with Acinetobacter baumannii. As to the kind of experiment: Antibacterial activity against Acinetobacter baumannii 3785 assessed as reduction in microbial growth incubated for 16 hrs by broth microdilution method.
For assay [3], the system named is Acinetobacter baumannii. As to the kind of experiment: Potentiation of clarithromycin-induced antibacterial activity against Acinetobacter baumannii 4878 assessed as fold reduction in clarithromycin MIC at 7.5 uM incubated for 16 hrs by broth microdilution method.
Assay [4] relates to Acinetobacter baumannii. As to the kind of experiment: Potentiation of clarithromycin-induced antibacterial activity against Acinetobacter baumannii 8967 assessed as fold reduction in clarithromycin MIC at 7.5 uM incubated for 16 hrs by broth microdilution method.
In assay [5] the test system is Acinetobacter baumannii. As to the kind of experiment: Potentiation of clarithromycin-induced antibacterial activity against Acinetobacter baumannii 4269 assessed as fold reduction in clarithromycin MIC at 7.5 uM incubated for 16 hrs by broth microdilution method.
In assay [6] the test system is Acinetobacter baumannii. As to the kind of experiment: Potentiation of clarithromycin-induced antibacterial activity against Acinetobacter baumannii 4857 assessed as fold reduction in clarithromycin MIC at 7.5 uM incubated for 16 hrs by broth microdilution method.
The test system of assay [7] is Acinetobacter baumannii. As to the kind of experiment: Antibacterial activity against Acinetobacter baumannii 4878 assessed as reduction in microbial growth incubated for 16 hrs by broth microdilution method.
For assay [8], the system named is Acinetobacter baumannii. As to the kind of experiment: Potentiation of clarithromycin-induced antibacterial activity against Acinetobacter baumannii 4991 assessed as fold reduction in clarithromycin MIC at 7.5 uM incubated for 16 hrs by broth microdilution method.
Assay [9] has as its system Acinetobacter baumannii. As to the kind of experiment: Potentiation of clarithromycin-induced antibacterial activity against Acinetobacter baumannii 4026 assessed as fold reduction in clarithromycin MIC at 7.5 uM incubated for 16 hrs by broth microdilution method.
The test system of assay [10] is Acinetobacter baumannii. As to the kind of experiment: Potentiation of clarithromycin-induced antibacterial activity against Acinetobacter baumannii 4456 assessed as fold reduction in clarithromycin MIC at 7.5 uM incubated for 16 hrs by broth microdilution method.

SMILES strings stand for the structures.

Regarding `Cl.Nc1nc(-c2ccc(NC(=O)Nc3cc(Br)cc(Br)c3)cc2)c[nH]1`, the MIC was 0.25 µg/mL in the assay on Acinetobacter baumannii [1], 25 µM in the assay on Acinetobacter baumannii [2] and 25 µM in the assay with Acinetobacter baumannii [7]. The “fold change (FC)” value in the assay on Acinetobacter baumannii [3], with Acinetobacter baumannii [4], in the assay with Acinetobacter baumannii [5], with Acinetobacter baumannii [6], with Acinetobacter baumannii [8] and with Acinetobacter baumannii [9] was 16 throughout. Moreover, the “fold change (FC)” value in the assay on Acinetobacter baumannii [10] turned out to be 16.
